Data: publication PMC11247627, “Evaluation of Antibacterial Functionalized Dihydropyrimidine Photoaffinity Probes Toward Mechanism of Action Studies” (ACS Medicinal Chemistry Letters, 2024)
≈ marks a conversion by molar mass, not a printed value. Where “and” joins values, the source holds several entries; their conditions need not be identical. Identical values can stand only once.

Assays:
Format in all cases: cell-based
[1] = test system: Staphylococcus aureus ATCC 12600; assay: Antibacterial broth microdilution assay (MIC), methicillin-sensitive S. aureus ATCC 12600; conditions: Staphylococcus aureus, ATCC12600; amount inhibiting >95% of growth (A600), 18 h; suffix 'I' = partial growth inhibition at the value, >95% at higher concentrations; read-out: MIC ATCC 12600
Experimental: (§1) These 24 DHP analogues were then screened for inhibition of Staphylococcus aureus growth using microdilution assays. Growth inhibition was examined in methicillin-sensitive S. aureus (ATCC 12600) and two strains of MRSA (ATCC 33591 and ATCC 43300). Antibiotic controls were included in the screen, including carbenicillin, erythromycin, gentamycin, trimethoprim, and vancomycin, and minimum inhibitory concentrations (MICs) were determined for each compound, which were defined as the concentration required to inhibit >95% of bacterial growth (Table 1).
(§2) Antibacterial Microdilution Assay (MIC Determination)
(§3) 1240 The MIC determination assays were performed in a BSL-2 laboratory with appropriate security and biosafety measures. The MICs were determined using a broth microdilution assay closely following the guidelines of the Clinical and Laboratories Standards Institute (CLSI). MICs were determined in duplicate for two biological replicates using 2-fold serial dilutions of test compounds or commercial antibiotics in cation-adjusted Mueller-Hinton broth. The central 60 wells of 96-well plates were 1245 prepared with the compound of interest at the indicated concentration, where 2 µL of the compound in DMSO were added prior to the addition of the culture. Overnight cultures of the different Staphylococcus aureus strains were diluted to provide an initial inoculum of approximately 5 X 10 5 CFU/mL that was delivered to each well in 198 µL of culture (final DMSO concentration of ~1%). Initial inoculum concentrations were verified by plating to count CFU/mL. Each plate was equipped with 1250 experimental controls for full growth (6 wells) and full growth inhibition (6 wells), and all control wells were in the presence of 1% DMSO. The outer 36 wells were filled with 200 µL of culture each to prevent growth effects on the interior 60 wells. The plates were incubated at 37 °C for 18 hours, at which time they were removed from the incubator and were allowed to equilibrate to room temperature for 30 minutes. Absorbance of each well at 600 nm was then read using a microplate reader to 1255 determine the MIC, and visual confirmation of growth inhibition was also performed. If variation was seen in the experimental values, the highest value of two independent trials was listed.

[2] = test system: Staphylococcus aureus ATCC 43300 (MRSA); assay: Antibacterial broth microdilution assay (MIC), MRSA ATCC 43300; conditions: Staphylococcus aureus; amount inhibiting >95% of growth (A600), 18 h; suffix 'I' = partial growth inhibition at the value, >95% at higher concentrations; read-out: MIC ATCC 43300
Experimental: as §1, §2, §3

[3] = test system: Staphylococcus aureus ATCC 33591 (MRSA); assay: Antibacterial broth microdilution assay (MIC), MRSA ATCC 33591; conditions: Staphylococcus aureus; amount inhibiting >95% of growth (A600), 18 h; suffix 'I' = partial growth inhibition at the value, >95% at higher concentrations; read-out: MIC ATCC 33591
Experimental: as §1, §2, §3

[4] = MTT cytotoxicity assay, HEK293 viability; conditions: human, HEK293 cells, 24 h treatment
Experimental: After determining that some of our compounds were quite potent for the inhibition of bacterial growth, we next turned toward assessing broader cytotoxicity trends. […] Further, our previously reported derivatives were also screened for red blood cell (RBC) hemolysis, and the assay indicated a lack of RBC lysis at the highest concentrations tested for all compounds (64 μg/mL).[6] […] This indicates it may have secondary mechanisms of cytotoxicity via nonspecific membrane rupturing activity, albeit, at a much higher concentration than its 2 μg/mL MIC. Next, we examined the compounds’ ability to decrease the viability of an immortalized mammalian cell line (HEK293) using a colorimetric MTT assay.[34] To our surprise, all of the compounds screened produced relatively potent cytotoxicity against this cell line. […] We screened a dihydropyrimidine where the guanidine was substituted with a urea (traditional Biginelli reaction derived), and this compound had no bacterial inhibition but continued to have significant mammalian cytotoxicity, further decoupling the antibacterial activity from mammalian cytotoxicity in these cases. Future studies involving the photoaffinity probes will examine the mechanism by which our compounds exert their growth-inhibiting effects in both bacterial and mammalian cells.
Mammalian cytotoxicity was evaluated using a commercially available MTT Cell proliferation assay 1275 (ATCC 30-1010K; Manassas, VA) following the included protocol. Briefly, Human Embryonic Kidney 293 (HEK-293; ATCC CRL-1353) cells were seeded onto 96 well plates (Nunclon Delta; ThermoFisher 167008; Waltham, MA) coated with Poly-D-Lysine (Thermofisher A3890401) at a density of […] cells per well in 80 µL of Eagle's Minimum Essential Medium (EMEM; ATCC 30-2003) with 10% Fetal Bovine Serum (ATCC 30-2021). Cells were incubated at 37 °C in a 5% CO2 atmosphere and allowed to 1280 adhere overnight, and then treated for 24 h with 20 µL of drugs dissolved in PBS with 0.5% DMSO, at concentrations ranging from 1×10^-4 M to 1×10^-9 M. Following treatment, 10 µL of MTT reagent was added to each well and allowed to incubate at 37 °C for 4 h. Then, 100 μL of detergent reagent was added to all wells, and they were stored at room temperature in the dark for 2 h. Absorbance was then read using a multi-mode spectrophotometer (Spectramax i3X; San Jose, CA) at a wavelength of 570 1285 nm. Raw values were normalized to a 0-100% scale using the maximum and minimum responses. To generate dose-response curves and IC50 values, normalized data were plotted against the log of the drug concentrations and fit to nonlinear curve [log(inhibitor) vs. response – variable slope (four parameters)] using GraphPad Prism version 7.05 (GraphPad Software; San Diego, CA).

[5] = test system: red blood cells (defibrinated sheep blood); assay: Hemolysis assay (red blood cell lysis); conditions: concentration producing >20% hemolysis of red blood cells, 1 h, 37 C
Experimental: 1260 1.5 mL of mechanically defibrinated sheep blood (Hemostat Labs: DSB100) was placed in a microcentrifuge tube and was centrifuged at 10,000 rpm for ten minutes. Following the removal of the supernatant, the cells were resuspended in 1 mL of phosphate-buffered saline (PBS). This process was repeated two more times. The final suspension was diluted ten-fold with PBS and was aliquoted into microcentrifuge tubes containing the compounds which were previously serial diluted in PBS. TritonX 1265 (1% by volume) served as a positive control, while sterile PBS served as a negative control. All samples were incubated at 37 °C and shaken at 200 rpm for 1 hour. After the 1 hour, the samples were centrifuged at 10,000 rpm for 5 minutes and the absorbance of the supernatant was measured via UV spectroscopy at a 540 nm wavelength.

Row | Compound | MIC [1] [µg/mL] | MIC [2] [µg/mL] | MIC [3] [µg/mL] | IC50 at 24 h [4] | lysis20 [5] [µg/mL]
1 | CCOC(=O)C1=C(c2ccccc2)NC(N)=NC1c1ccccc1[N+](=O)[O-] (stereo not drawn) [6a] | > 64 | > 64 | > 64 |  | 
2 | CCOC(=O)C1=C(c2ccccc2)NC(N)=NC1c1cccc([N+](=O)[O-])c1 (stereo not drawn) [6b] | 64 (≈ 175 µM) |  |  |  | 
3 | CCOC(=O)C1=C(c2ccccc2)NC(N)=NC1c1ccc([N+](=O)[O-])cc1 (stereo not drawn) [6c] | 64 (≈ 175 µM) | 64 (≈ 175 µM) | 64 (≈ 175 µM) |  | 
4 | CCOC(=O)C1=C(c2ccccc2)NC(N)=NC1c1cccc(C(F)(F)F)c1 (stereo not drawn) [6d] | 32 (≈ 82.2 µM) | 32 (≈ 82.2 µM) | 32 (≈ 82.2 µM) |  | 
5 | CCOC(=O)C1=C(c2ccccc2)NC(N)=NC1c1ccc(C(F)(F)F)cc1 (stereo not drawn) [6e] | 16 (≈ 41.1 µM) | 16 (≈ 41.1 µM) | 16 (≈ 41.1 µM) |  | 
6 | CCOC(=O)C1=C(c2ccccc2)NC(N)=NC1c1ccccc1F (stereo not drawn) [6f] | > 64 | > 64 | > 64 |  | 
7 | CCOC(=O)C1=C(c2ccccc2)NC(N)=NC1c1cc(Cl)cc(Cl)c1 (stereo not drawn) [6j] | 8 (≈ 20.5 µM) | 8 (≈ 20.5 µM) |  | 11 µM and 3.5 µg/mL | >64
8 | CCOC(=O)C1=C(c2ccccc2)NC(N)=NC1c1ccc(C)cc1 (stereo not drawn) [6m] | > 64 | > 64 | > 64 |  | 
9 | CCOC(=O)C1=C(c2ccccc2)NC(N)=NC1c1c(C)cccc1C (stereo not drawn) [6n] |  |  | 64 (≈ 183 µM) |  | 
10 | CCOC(=O)C1=C(c2ccccc2)NC(N)=NC1c1ccc(C)c(C)c1 (stereo not drawn) [6p] |  | 32 (≈ 91.6 µM) |  |  | 
11 | CCOC(=O)C1=C(c2ccccc2)NC(N)=NC1c1cc(C)cc(C)c1 (stereo not drawn) [6q] | > 64 | > 64 | > 64 |  | 
12 | CCOC(=O)C1=C(c2ccccc2)NC(N)=NC1c1cccc(OC)c1 (stereo not drawn) [6t] | > 64 | > 64 | > 64 |  | 
13 | CCOC(=O)C1=C(c2ccccc2)NC(N)=NC1c1cc(OC)cc(OC)c1 (stereo not drawn) [6v] | > 64 | > 64 | > 64 |  | 
14 | CCOC(=O)C1=C(CC)NC(N)=NC1c1ccc(CC(C)C)cc1 (stereo not drawn) [7c] |  | 4 (≈ 12.1 µM) | 8 (≈ 24.3 µM) | 11 µM and 3.5 µg/mL | >64
15 | CCOC(=O)C1=C(CC)NC(N)=NC1c1ccc(-c2ccccc2)cc1 (stereo not drawn) [7d] |  |  | 8 (≈ 22.9 µM) |  | 
